± gives the expanded uncertainty stated by the source.
Assay: wn = mass fraction of the nth substance listed
Conditions: 101 kPa, Liquid; for mass density: Vibrating tube method; for speed of sound: Single path-length method

CN1CCCC1=O [N-methylpyrrolidone] + CCCCn1cc[n+](C)c1.F[B-](F)(F)F
Conditions	mass density [kg/m3]	speed of sound [m/s]	viscosity [mPa·s]
318.15 K, w2 = 0	–	–	1.258 ± 0.037
318.15 K, w2 = 0.0986	–	–	1.662 ± 0.047
318.15 K, w2 = 0.2498	1057 ± 1	–	2.405 ± 0.065
318.15 K, w2 = 0.4971	1099.5 ± 0.5	–	4.948 ± 0.13
318.15 K, w2 = 0.7413	1141.7 ± 0.8	–	12.04 ± 0.3
323.15 K, w2 = 0	1007.4 ± 0.2	1450.4 ± 0.9	1.176 ± 0.035
323.15 K, w2 = 0.0986	1026.6 ± 0.2	1468.4 ± 1	1.542 ± 0.044
323.15 K, w2 = 0.2498	1052.8 ± 0.3	1478 ± 1.1	2.214 ± 0.06
323.15 K, w2 = 0.4971	1095.5 ± 0.5	1493.2 ± 1.4	4.444 ± 0.11
323.15 K, w2 = 0.7413	1137.9 ± 0.8	1498.9 ± 1.8	10.54 ± 0.27
328.15 K, w2 = 0	1002.9 ± 0.2	1431.4 ± 0.9	1.103 ± 0.033
328.15 K, w2 = 0.0986	1022.3 ± 0.2	1450.5 ± 1	1.435 ± 0.041
328.15 K, w2 = 0.2498	1048.6 ± 0.3	1461.1 ± 1.1	2.043 ± 0.056
328.15 K, w2 = 0.4971	1091.6 ± 0.4	1478.1 ± 1.4	4.015 ± 0.1
328.15 K, w2 = 0.7413	1134.2 ± 0.8	1485.6 ± 1.8	9.281 ± 0.24
333.15 K, w2 = 0	998.4 ± 0.2	1412.8 ± 0.9	1.037 ± 0.032
333.15 K, w2 = 0.0986	1018 ± 0.2	1432.6 ± 1	1.341 ± 0.039
333.15 K, w2 = 0.2498	1044.4 ± 0.3	1444.4 ± 1.1	1.892 ± 0.052
333.15 K, w2 = 0.4971	1087.6 ± 0.4	1463.2 ± 1.4	3.636 ± 0.095
333.15 K, w2 = 0.7413	1130.5 ± 0.7	1472.4 ± 1.8	8.224 ± 0.21
338.15 K, w2 = 0	993.9 ± 0.2	1394.4 ± 0.9	0.9769 ± 0.03
338.15 K, w2 = 0.0986	1013.6 ± 0.2	1414.6 ± 1	1.258 ± 0.037
338.15 K, w2 = 0.2498	1040.2 ± 0.3	1427.8 ± 1.1	1.76 ± 0.049
338.15 K, w2 = 0.4971	1083.6 ± 0.4	1448.1 ± 1.4	3.34 ± 0.088
338.15 K, w2 = 0.7413	1126.7 ± 0.7	1459.3 ± 1.8	7.318 ± 0.19
343.15 K, w2 = 0	989.4 ± 0.2	1376 ± 0.9	0.923 ± 0.029
343.15 K, w2 = 0.0986	1009.2 ± 0.2	1396.4 ± 1	1.182 ± 0.035
343.15 K, w2 = 0.2498	1036 ± 1	1411.3 ± 1.1	1.641 ± 0.046
343.15 K, w2 = 0.4971	1079.6 ± 0.4	1432.9 ± 1.4	3.064 ± 0.081
343.15 K, w2 = 0.7413	1123 ± 1	1445.8 ± 1.8	6.555 ± 0.17

— the NIST ThermoML archive (doi:10.1016/j.fluid.2018.08.017)
